In patent US4683198A, “Novel maltose dehydrogenase, process for its production, and analytical method using the same” (Toyo Jozo Kabushiki Kaisha, priority 1983, dated 1987):

Target: T1, amylase (Homo sapiens, UniProt P0DUB6)
T1 construct: 500-fold-diluted saliva (a specimen containing amylase, 20 μl); from tissue; host or cells: saliva, 500-fold diluted
T1 sequence (P0DUB6 16-511): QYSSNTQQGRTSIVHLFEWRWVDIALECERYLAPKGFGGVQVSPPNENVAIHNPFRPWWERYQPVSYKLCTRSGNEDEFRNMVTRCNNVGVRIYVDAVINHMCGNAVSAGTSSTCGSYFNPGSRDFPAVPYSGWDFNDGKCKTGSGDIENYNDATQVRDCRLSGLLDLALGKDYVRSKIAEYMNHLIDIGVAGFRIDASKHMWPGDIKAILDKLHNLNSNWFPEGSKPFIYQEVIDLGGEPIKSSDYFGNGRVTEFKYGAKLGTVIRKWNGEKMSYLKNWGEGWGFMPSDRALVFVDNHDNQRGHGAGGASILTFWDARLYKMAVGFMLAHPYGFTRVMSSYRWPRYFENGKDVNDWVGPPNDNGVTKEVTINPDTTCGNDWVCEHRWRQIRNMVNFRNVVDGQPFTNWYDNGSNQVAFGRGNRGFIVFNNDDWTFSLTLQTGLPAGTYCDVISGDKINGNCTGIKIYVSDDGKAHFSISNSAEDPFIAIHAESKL
Assay: Salivary amylase assay with modified oligosaccharide substrates (Example 3)
Assay type: biochemical
Conditions: 5 mM substrate; 500-fold-diluted saliva; 37° C.
Protocol: Aliquots of the reaction mixture (each 1 ml), in which 5 mM p-nitrophenylpentaoside or p-nitrophenylheptaoside was added to the same reaction mixture described in Example 2, in small test tubes, were pre-incubated at 37° C. Aliquots of 500-fold-diluted saliva (a specimen containing amylase, 20 μl) were added thereto and the mixtures were incubated for 5, 10 and 15 mins., respectively.

Compound: O=[N+]([O-])c1ccc(OC2O[C@H](CO)[C@@H](O[C@H]3O[C@H](CO)[C@@H](O[C@H]4O[C@H](CO)[C@@H](O[C@H]5O[C@H](CO)[C@@H](O[C@H]6O[C@H](CO)[C@@H](O[C@H]7O[C@H](CO)[C@@H](O[C@H]8O[C@H](CO)[C@@H](O)[C@H](O)[C@H]8O)[C@H](O)[C@H]7O)[C@H](O)[C@H]6O)[C@H](O)[C@H]5O)[C@H](O)[C@H]4O)[C@H](O)[C@H]3O)[C@H](O)[C@H]2O)cc1 (stereo partly shown) [p-nitrophenylheptaoside]
- activity as compared with p-nitrophenylpentaoside: Three times stronger activity
